In patent EP1142584A1, “COMPOSITIONS FOR TREATING FREQUENT URINATION AND URINARY INCONTINENCE” (Takeda Chemical Industries, Ltd., priority 1999, dated 2000):
Where a name gives a salt, the structure may show the parent alone. Marks after values point to notes of the source that are not given here.

Assays:
Type in all cases: in vivo
[1] = system: rhythmic bladder contractions in urethane-anesthetized guinea pig; assay: Rhythmic bladder contractions in urethane-anesthetized guinea pig (Test Example 1); conditions: mean ± standard error, maximum observation period 30 minutes
Protocol: The urinary frequency and urinary incontinence suppressing activity of NO-711 hydrochloride was evaluated by the ability to increase an interval between rhythmic bladder contractions in urethane-anesthetized guinea pig as an index. In this model, an urethra was ligated, a constant volume of a physiological saline (3 to 4.5 ml) warmed at 39°C was injected into the bladder to distend, and the regular rhythmic bladder contractions at a constant interval were observed. After the stable rhythmic bladder contractions were confirmed, a compound dissolved in physiological saline was administered intravenously to investigate the activity. Immediately after administration of a drug, the time of complete suppression of the rhythmic bladder contractions (rhythmic bladder contraction shutdown time, maximum observation period was 30 minutes) was measured. Table 1 A drug was administered intravenously. *P<0.05, **P<0.01 (significance to the physiological saline-administered control group, nonparametric Dunnett multiple comparison test, two-tailed test)

[2] = system: rhythmic bladder contractions in urethane-anesthetized rats; assay: Rhythmic bladder contractions in urethane-anesthetized rats (Test Example 2); conditions: mean ± standard error; for Reflex shutdown time: maximum observation period 30 minutes
Protocol: The urinary frequency and urinary incontinence suppressing activity of a GABA uptake inhibitor was measured as the ability to abolish the rhythmic bladder contractions in urethane-anesthetized rats as an index. An urethra was ligated, a constant volume of physiological saline warmed at 39°C was injected into the bladder to distend the detrusor muscle, and the regular rhythmic bladder contractions at a constant interval were observed. After the stable bladder contractions were confirmed, a compound was administered intravenously to investigate the activities. A time for completely suppressing the rhythmic bladder contractions after the drug administration (reflex shutdown time, a maximum observation period was 30 minutes) and a maximum contractile intravesical pressure at which the bladder contraction appeared again after the administration was measured. […] Table 2 Tiagabin hydrochloride was dissolved in distilled water, other drugs were dissolved in physiological saline, and the drugs were administered intravenously, respectively. Data are shown as mean ± standard error. *P<0.05, **P<0.01 (significance relative to the vehicle-administered control group, nonparametric Dunnett multiple comparison test, two-tailed test) ^#P<0.05 (significance to the values obtained before drug administration, paired t test, two-tailed test). A maximum contractile pressure was calculated from animals from which the bladder constriction was obtained in an observation period.

[3] = system: bladder capacity in urethane-anesthetized rats; assay: Bladder capacity (cystometry) in urethane-anesthetized rats (Test Example 3); conditions: mean ± standard error
Protocol: The urinary frequency and urinary incontinence suppressing activity of a GABA uptake inhibitor was shown by the ability to increase bladder capacity in urethane-anesthetized rats. After a bladder was made empty by drawing out the urine, physiological saline warmed at 39°C was injected into the bladder at a constant rate (0.05 ml/min.) to induce micturition. These procedures were repeated to confirm stable bladder capacity (volume of physiological saline injected until start of micturition) and, thereafter, compounds were administered intravenously to investigate the activities. A change in bladder capacity and micturition pressure after the administration was measured. […] Table 3 Tiagabin hydrochloride was dissolved in distilled water, other drugs were dissolved in physiological saline and the drugs were administered intravenously, respectively. Data are shown as the mean ± standard error. After drug administration, animals showing an overflow urinary incontinence-like cystometrogram (urine leakage without the bladder constriction) were excluded from calculation of micturition pressure. *P<0.05, **P<0.01 (significance to the values obtained before drug administration, paired t test, two-tailed test)

[4] = system: bilateral common carotid artery-ligated rat under consciousness; assay: Micturition interval in bilateral common carotid artery-ligated rat under consciousness (Test Example 4); conditions: for Micturition interval (relative to before ligation, %) After administration / Micturition pressure (relative to before ligation, %) After administration: 30 minutes after administration; for Micturition interval (relative to before ligation, %) After administration / Micturition pressure (relative to before ligation, %) After administration / Micturition interval (relative to before ligation, %) Before administration / Micturition pressure (relative to before ligation, %) Before administration: mean ± standard error; for Micturition interval (relative to before ligation, %) Before administration / Micturition pressure (relative to before ligation, %) Before administration: after ligation, before drug
Protocol: The urinary frequency and urinary incontinence suppressing activity of a GABA uptake inhibitor was measured as the ability to increase the micturition interval in bilateral common carotid artery-ligated rat under consciousness as an index. An animal was restricted in a Ballmann cage, and physiological saline was sustained-injected into the bladder at a constant rate (0.1 ml/min.) to induce repeated micturition. After the stable micturition interval was confirmed, common carotid arteries were ligated bilaterally and micturition interval was decreased. A compound was administered intravenously to animals with micturition interval decreased 20% or more following ligation, and the activity was investigated. The micturition interval and micturition pressure before and after drug administration were measured for 30 minutes, and the averages are expressed as the ratio to the value before bilateral common carotid artery-ligation (Table 4). […]
Tiagabin hydrochloride was dissolved in distilled water and administered intravenously. Crystometograms for 30 minutes before and after drug administration were continuously measured and compared. Data are shown as a ratio to micturition interval and micturition pressure before bilateral common carotid artery-ligation (mean ± standard error). *P<0.05, **P<0.01 (significance relative to before drug administration, paired t test, two-tailed test)

[5] = system: unilaterally decerebrated rat under consciousness; assay: Micturition interval in unilaterally decerebrated rat under consciousness (Test Example 5); conditions: for Micturition interval (min.) After administration / Micturition pressure (mmHg) After administration / Micturition interval (min.) Before administration / Micturition pressure (mmHg) Before administration: mean ± standard error; for Micturition interval (min.) Before administration / Micturition pressure (mmHg) Before administration: 30 minutes before drug
Protocol: The urinary frequency and urinary incontinence activity of a GABA uptake inhibitor was measured as the ability to increase the micturition interval in a unilaterally decerebrated rat under consciousness as an index. Animals were restricted in a Ballmann cage, and physiological saline was sustained-injected into the bladder at a constant rate (0.05 ml/min.) to induce repeated micturition. In a unilaterally decerebrated rat, micturition interval was decreased, and after the stable micturition interval was confirmed, a drug was administered intravenously or orally to investigate the activity (Table 5 and Table 6). The micturition interval and micturition pressure before and after drug administration were measured for 30 minutes, and the mean values were compared.
A drug was administered intravenously. Cystometogram was continuously measured for 30 minutes starting 15 minutes after drug administration, and it was compared with that for 30 minutes before drug administration. Data are shown as the means ± standard error. *P<0.05 **P<0.01 (significance to before administration, paired t test, two-tailed test) Table 6
A drug was administered orally. A bladder inner pressure curve was continuously measured for 30 minutes starting 60 minutes after drug administration, and it was compared with that for 30 minutes before drug administration. Data are shown as the mean ± standard error. *P<0.05 (significance relative to drug administration, paired t test, two-tailed test)

[6] = baseline of the 0.1 mg/kg i.v. group
[7] = baseline of the 0.3 mg/kg i.v. group
[8] = baseline of the 1 mg/kg i.v. group
[9] = baseline of the 3 mg/kg i.v. group
[10] = 0.3 mg/kg intravenously, 30 minutes starting 15 minutes after administration
[11] = 1 mg/kg intravenously, 30 minutes starting 15 minutes after administration
[12] = 3 mg/kg intravenously, 30 minutes starting 15 minutes after administration

O=C(O)C1=CCCN(CCON=C(c2ccccc2)c2ccccc2)C1 [NO-711 hydrochloride]
Rhythmic bladder contraction shutdown time ([1]; 1 mg/kg intravenously): 5.9 ± 1.3 min
Rhythmic bladder contraction shutdown time ([1]; 3 mg/kg intravenously): 18.4±5.0* minutes
Rhythmic bladder contraction shutdown time ([1]; 10 mg/kg intravenously): 16.9±3.6** minutes
Change in maximum contractile intravesical pressure (Relative to before administration, %) ([2]; 0.3 mg/kg intravenously): -3.3±3.2%
Reflex shutdown time ([2]; 0.3 mg/kg intravenously): 3.8 ± 1.1 min
Change in maximum contractile intravesical pressure (Relative to before administration, %) ([2]; 1 mg/kg intravenously): -19.7±5.6* %
Reflex shutdown time ([2]; 1 mg/kg intravenously): 11.4±2.9** min.
Change in maximum contractile intravesical pressure (Relative to before administration, %) ([2]; 3 mg/kg intravenously): -8.4±5.8%
Reflex shutdown time ([2]; 3 mg/kg intravenously): 12.1±2.5** min.
Change in bladder capacity (Relative to before administration, %) ([3]; 0.3 mg/kg intravenously): -8.4±11.3%
Change in micturition pressure (Relative to before administration, %) ([3]; 0.3 mg/kg intravenously): -18.1±10.5%
Change in bladder capacity (Relative to before administration, %) ([3]; 1 mg/kg intravenously): 180.9±76.8* %
Change in micturition pressure (Relative to before administration, %) ([3]; 1 mg/kg intravenously): 16.4±8.2%
Change in bladder capacity (Relative to before administration, %) ([3]; 3 mg/kg intravenously): 188.7±45.3** %
Change in micturition pressure (Relative to before administration, %) ([3]; 3 mg/kg intravenously): 14.6±18.2%

O=C(O)[C@@H]1CCCN(CCC=C(c2ccccc2)c2ccccc2)C1 [SKF89976A hydrochloride, (R)-1-(4,4-diphenyl-3-butenyl)-3-piperidinecarboxylic acid]
Change in maximum contractile intravesical pressure (Relative to before administration, %) ([2]; 3 mg/kg intravenously): -7.1±3.1%
Reflex shutdown time ([2]; 3 mg/kg intravenously): 5.0 ± 1.0 min
Change in maximum contractile intravesical pressure (Relative to before administration, %) ([2]; 10 mg/kg intravenously): -12.1±11.5%
Reflex shutdown time ([2]; 10 mg/kg intravenously): 15.7±3.3* min.
Change in maximum contractile intravesical pressure (Relative to before administration, %) ([2]; 30 mg/kg intravenously): -8.4±10.6%
Reflex shutdown time ([2]; 30 mg/kg intravenously): 25.1±4.6** min.

Cc1ccsc1C(=CCCN1CCC[C@@H](C(=O)O)C1)c1sccc1C [Tiagabin hydrochloride, (R)-1-[4,4-bis(3-methyl-2-thienyl)-3-butenyl]-3-piperidinecarboxylic acid]
Change in maximum contractile intravesical pressure (Relative to before administration, %) ([2]; 0.3 mg/kg intravenously): -12.6±5.8%
Reflex shutdown time ([2]; 0.3 mg/kg intravenously): 4.7 ± 1.6 min
Change in maximum contractile intravesical pressure (Relative to before administration, %) ([2]; 1 mg/kg intravenously): 4.5±17.3%
Reflex shutdown time ([2]; 1 mg/kg intravenously): 11.6 ± 3.8 min
Change in maximum contractile intravesical pressure (Relative to before administration, %) ([2]; 3 mg/kg intravenously): -19.4±11.8%
Reflex shutdown time ([2]; 3 mg/kg intravenously): 18.0±3.5* min.
Change in maximum contractile intravesical pressure (Relative to before administration, %) ([2]; 10 mg/kg intravenously): -31.6±10.5%
Reflex shutdown time ([2]; 10 mg/kg intravenously): 24.6±3.1** min.
Change in bladder capacity (Relative to before administration, %) ([3]; 1 mg/kg intravenously): 42.7±35.6%
Change in micturition pressure (Relative to before administration, %) ([3]; 1 mg/kg intravenously): 15.2±14.6%
Change in bladder capacity (Relative to before administration, %) ([3]; 3 mg/kg intravenously): 236.8±81.2* %
Change in micturition pressure (Relative to before administration, %) ([3]; 3 mg/kg intravenously): 29.5±15.6%
Change in bladder capacity (Relative to before administration, %) ([3]; 10 mg/kg intravenously): 276.4±29.4** %
Change in micturition pressure (Relative to before administration, %) ([3]; 10 mg/kg intravenously): 2.5±10.3%
Micturition interval (relative to before ligation, %) After administration ([4]; 0.1 mg/kg intravenously): 78.8±10.0%
Micturition pressure (relative to before ligation, %) After administration ([4]; 0.1 mg/kg intravenously): 100.7±2.3%
Micturition interval (relative to before ligation, %) After administration ([4]; 0.3 mg/kg intravenously): 92.1±12.8* %
Micturition pressure (relative to before ligation, %) After administration ([4]; 0.3 mg/kg intravenously): 86.3±9.2%
Micturition interval (relative to before ligation, %) After administration ([4]; 1 mg/kg intravenously): 100.0±6.5** %
Micturition pressure (relative to before ligation, %) After administration ([4]; 1 mg/kg intravenously): 105.0±8.4%
Micturition interval (relative to before ligation, %) After administration ([4]; 3 mg/kg intravenously): 75.5±15.0* %
Micturition pressure (relative to before ligation, %) After administration ([4]; 3 mg/kg intravenously): 106.2 ± 5.3%
Micturition interval (relative to before ligation, %) Before administration [4, 6]: 58.5±3.1%
Micturition pressure (relative to before ligation, %) Before administration [4, 6]: 103.9±1.1%
Micturition interval (relative to before ligation, %) Before administration [4, 7]: 62.5±4.9%
Micturition pressure (relative to before ligation, %) Before administration [4, 7]: 91.3±10.6%
Micturition interval (relative to before ligation, %) Before administration [4, 8]: 63.2±3.3%
Micturition pressure (relative to before ligation, %) Before administration [4, 8]: 111.5±8.3%
Micturition interval (relative to before ligation, %) Before administration [4, 9]: 46.5±11.6%
Micturition pressure (relative to before ligation, %) Before administration [4, 9]: 105.2±10.8%
micturition interval (result in words) ([4]; intravenously, interval decreased by bilateral common carotid artery ligation, summary of Table 4): showed an increasing effect on micturition interval
Micturition interval (min.) After administration [5, 10]: 6.8 ± 0.9 min
Micturition pressure (mmHg) After administration [5, 10]: 15.1±2.6 mmHg
Micturition interval (min.) After administration [5, 11]: 6.5±1.0* min.
Micturition pressure (mmHg) After administration [5, 11]: 14.5±1.5 mmHg
Micturition interval (min.) After administration [5, 12]: 7.3±0.5** min.
Micturition pressure (mmHg) After administration [5, 12]: 16.5±1.6 mmHg
Micturition interval (min.) After administration ([5]; 3 mg/kg orally, 30 minutes starting 60 minutes after administration): 5.6 ± 0.7 min
Micturition interval (min.) After administration ([5]; 10 mg/kg orally, 30 minutes starting 60 minutes after administration): 6.1±0.8* min.
Micturition interval (min.) Before administration [5, 7]: 6.6 ± 1.5 min
Micturition pressure (mmHg) Before administration [5, 7]: 13.9±2.3 mmHg
Micturition interval (min.) Before administration [5, 8]: 5.2 ± 0.7 min
Micturition pressure (mmHg) Before administration [5, 8]: 14.4±1.4 mmHg
Micturition interval (min.) Before administration [5, 9]: 5.1 ± 0.5 min
Micturition pressure (mmHg) Before administration [5, 9]: 16.1±1.4 mmHg
Micturition interval (min.) Before administration ([5]; baseline of the 3 mg/kg oral group): 4.9 ± 0.8 min
Micturition interval (min.) Before administration ([5]; baseline of the 10 mg/kg oral group): 4.4 ± 0.5 min
micturition interval (result in words) ([5]; both intravenous and oral administrations, summary of Table 5 and Table 6): increased micturition interval
